BindingDB's records for patent US10370339 (Bayer Pharma Aktiengesellschaft, 2019)

Each molecule was assayed against Isocitrate dehydrogenase [NADP] cytoplasmic [R132H] (Homo sapiens, UniProt O75874, R132H) (assay: Biological Assay).
Experimental: Mutant IDH1 R132H Biochemical Assay mIDH1 catalyzes the NADPH-dependent reduction of alpha-ketoglutarate (a-KG) to (2R)-2-hydroxyglutarate (2-HG). NADPH consumption was measured by luminescent readout.The biochemical reactions were performed at 32° C. in 384-well plates using a reaction volume of 41 μL and the following assay buffer conditions: 50 mM Tris pH 7.5, 100 mM NaCl, 20 mM MgCl2, 0.05% BSA, 0.01% Brij, 1 μM NADPH, and 250 μM α-KG. The IDH1 R132H enzyme was used in a final concentration of 1.5 nM. Test compounds were used in a concentration range between 0.002 and 10 μM. The final DMSO concentration was 2.4%.The reaction was incubated for 30 minutes, then 40 μL of detection mix (0.75 μg/ml Luciferase, 0.02 U/ml Oxidoreductase, 4 μg/mL FMN, 2 μL/ml decanal/ethanol, 50 mM Tris pH 7.5, 0.5% Glycerin, 0.01% Tween-20, 0.05% BSA) was added. Luminescence was measured on a luminescent reader (10 seconds measuring time, 1 second integration period, 30% sensitivity). The decrease in luminescence is proportional to mIDH1 activity. IC50 values are determined by interpolation from plots of relative luminescence versus inhibitor concentration.

Sequence of Isocitrate dehydrogenase [NADP] cytoplasmic [R132H] (O75874 2-414 R132H limits assumed): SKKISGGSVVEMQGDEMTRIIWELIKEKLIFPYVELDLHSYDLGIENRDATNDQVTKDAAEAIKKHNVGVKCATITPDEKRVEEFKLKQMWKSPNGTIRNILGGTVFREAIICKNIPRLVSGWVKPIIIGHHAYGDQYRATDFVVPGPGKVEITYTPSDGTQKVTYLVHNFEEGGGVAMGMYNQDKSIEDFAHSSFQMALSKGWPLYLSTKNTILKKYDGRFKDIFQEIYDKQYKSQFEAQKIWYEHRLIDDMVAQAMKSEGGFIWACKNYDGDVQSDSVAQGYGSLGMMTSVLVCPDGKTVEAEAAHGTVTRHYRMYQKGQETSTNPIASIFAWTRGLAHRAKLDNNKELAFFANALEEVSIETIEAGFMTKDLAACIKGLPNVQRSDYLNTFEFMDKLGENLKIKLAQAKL

IC50 [nM]	SMILES
15	COc1cc2c(cc1C(=O)O)nc(Nc1ccc(OC(C)C)cc1)n2[C@@H]1C[C@H](C)CC[C@H]1C(C)C [US10370339, Example 2-30]
14	CC(C)[C@@H]1CC[C@@H](C)C[C@H]1n1c(Nc2ccc(OC(F)(F)F)cc2)nc2cc(CC(=O)O)ccc21 [US10370339, Example 2-31]
11	COc1cc2c(cc1CCC(=O)O)nc(Nc1ccc(C(C)C)cc1)n2[C@@H]1C[C@H](C)CC[C@H]1C(C)C [US10370339, Example 2-48]
